From patent publication US8048875B1, “Topical pharmaceutical composition comprising a cholinergic agent or a calcium channel blocker” (S.L.A. Pharma AG, priority 1997, dated 2011)
Read-outs that look alike come from different tables or passages of the source.

Legend:
[1] = Dose ranging study of bethanechol cream in healthy volunteers, anal manometry; type: in vivo, human; settings: higher concentrations produced no additional effect
Excerpt: Bethanechol cream at concentrations of 0.05%, 0.1%, 0.5% and 1% w/w bethanechol were made up in accordance with Example 1. The compositions were studied following initial experimentation in an open way to determine a clinically effective dose range. […] Maximal effect was produced by application of 0.1% bethanechol and higher concentrations of the cream produced no additional effect. At 0.1% w/w bethanechol, the mean resting pressure was reduced from about 110 cm to about 85 cm H2O (about 25% decrease). A typical ‘one inch’ application of this cream from the tube is equivalent to 400 mcg of bethanechol.

[2] = Study of Example 4 repeated using oral diltiazem
[3] = higher concentrations did not produce an additional effect
[4] = topical use; cited from earlier work
[5] = after 1 hour, patients with anal fissures; cited from earlier work

## CC(C[N+](C)(C)C)OC(N)=O (stereo not shown) [bethanechol]
[1]
  concentration producing the maximal effect on resting anal pressure: 0.1 % w/w

## COc1ccc([C@@H]2Sc3ccccc3N(CCN(C)C)C(=O)[C@@H]2OC(C)=O)cc1 [diltiazem]
[2]; 60 mg oral once a day
  effect on mean anal resting pressure: no notable effect
[2]; 60 mg oral twice a day
  patients who noticed postural dizziness: two
[2]; 60 mg oral twice a day, P=0.008
  mean anal resting pressure reduced by: 17%
[3]
  concentration producing the maximal effect on resting anal pressure: about 2 % w/w

## O=[N+]([O-])OCC(CO[N+](=O)[O-])O[N+](=O)[O-] [glyceryl trinitrate]
[4]
  effect on internal anal resting pressure: reduces the internal anal resting pressure

## O=C(NC1CCN(CCc2c[nH]c3ccccc23)CC1)c1ccccc1 [indoramin]
[5]
  reduction of maximum resting pressures in the anal canal: 35.8%
